What was measured:
[1] = xn = mol fraction of the nth substance listed; conditions: 298.15 K, 101 kPa, Liquid
[2] = excess molar enthalpy (molar enthalpy of mixing); xn = mol fraction of the nth substance listed; conditions: 298.15 K, 101 kPa, Liquid
[3] = 298.15 K; 101.33 kPa; Liquid
[4] = refractive index (Na D-line) (dimensionless); conditions: 298.15 K; 101.33 kPa; Liquid; Standard Abbe refractometry

BrCCCCCCBr [1,6-dibromohexane] + CCCC(=O)OC
Conditions	excess molar enthalpy [kcal/mol]	mass density [kg/m3]
[1], x2 = 0.0254	–	1587.59
[1], x2 = 0.0833	–	1555.83
[1], x2 = 0.1606	–	1512
[1], x2 = 0.2243	–	1474.58
[1], x2 = 0.291	–	1434.05
[1], x2 = 0.3545	–	1394.06
[1], x2 = 0.4193	–	1351.87
[1], x2 = 0.5445	–	1265.85
[1], x2 = 0.6016	–	1224.52
[1], x2 = 0.6573	–	1182.86
[1], x2 = 0.7029	–	1147.73
[1], x2 = 0.7563	–	1105.29
[1], x2 = 0.8125	–	1059.12
[1], x2 = 0.9056	–	978.87
[2], x2 = 0.0838	0.018	–
[2], x2 = 0.1878	0.0309	–
[2], x2 = 0.2949	0.0395	–
[2], x2 = 0.3961	0.0423	–
[2], x2 = 0.4591	0.0405	–
[2], x2 = 0.5094	0.0383	–
[2], x2 = 0.5864	0.0329	–
[2], x2 = 0.6566	0.0287	–
[2], x2 = 0.734	0.0232	–
[2], x2 = 0.8128	0.0172	–
[2], x2 = 0.8885	0.0108	–
[2], x2 = 0.9526	0.00392	–

BrCCCCCCBr [1,6-dibromohexane] + CCCCC(=O)OC
Conditions	excess molar enthalpy [kcal/mol]	mass density [kg/m3]
[1], x2 = 0.0703	–	1557.19
[1], x2 = 0.1394	–	1513.24
[1], x2 = 0.2633	–	1432.4
[1], x2 = 0.3222	–	1392.97
[1], x2 = 0.3842	–	1350.7
[1], x2 = 0.4472	–	1306.98
[1], x2 = 0.5076	–	1264.24
[1], x2 = 0.5698	–	1219.49
[1], x2 = 0.6817	–	1136.77
[1], x2 = 0.7372	–	1094.69
[1], x2 = 0.8445	–	1011.22
[1], x2 = 0.8993	–	967.47
[1], x2 = 0.945	–	930.4
[2], x2 = 0.0734	0.0108	–
[2], x2 = 0.1653	0.0181	–
[2], x2 = 0.264	0.0216	–
[2], x2 = 0.3507	0.0227	–
[2], x2 = 0.418	0.0213	–
[2], x2 = 0.4743	0.0187	–
[2], x2 = 0.5227	0.0154	–
[2], x2 = 0.5866	0.0104	–
[2], x2 = 0.6386	0.00703	–
[2], x2 = 0.716	0.00251	–
[2], x2 = 0.7966	4.78e-05	–
[2], x2 = 0.879	-0.000789	–
[2], x2 = 0.9483	-0.00012	–

BrCCCCCCBr [1,6-dibromohexane] + COC(C)=O
Conditions	excess molar enthalpy [kcal/mol]	mass density [kg/m3]
[1], x2 = 0.2073	–	1527.77
[1], x2 = 0.2887	–	1489.28
[1], x2 = 0.368	–	1448.7
[1], x2 = 0.44	–	1408.44
[1], x2 = 0.5134	–	1363.84
[1], x2 = 0.5691	–	1327.2
[1], x2 = 0.6301	–	1284.18
[1], x2 = 0.7305	–	1205.44
[1], x2 = 0.7765	–	1165.56
[1], x2 = 0.8189	–	1126.42
[1], x2 = 0.8614	–	1084.46
[1], x2 = 0.8974	–	1046.81
[1], x2 = 0.9345	–	1005.74
[1], x2 = 0.9663	–	968.1
[2], x2 = 0.1165	0.063	–
[2], x2 = 0.2329	0.104	–
[2], x2 = 0.317	0.13	–
[2], x2 = 0.4064	0.148	–
[2], x2 = 0.4865	0.156	–
[2], x2 = 0.553	0.156	–
[2], x2 = 0.6074	0.151	–
[2], x2 = 0.6546	0.143	–
[2], x2 = 0.6988	0.135	–
[2], x2 = 0.7443	0.124	–
[2], x2 = 0.7905	0.108	–
[2], x2 = 0.837	0.0889	–
[2], x2 = 0.8808	0.0701	–
[2], x2 = 0.9257	0.0424	–
[2], x2 = 0.9683	0.0205	–

BrCCCCCCBr [1,6-dibromohexane] + COC=O
Conditions	excess molar enthalpy [kcal/mol]	mass density [kg/m3]
[1], x2 = 0.0951	–	1574.69
[1], x2 = 0.1373	–	1561.81
[1], x2 = 0.18	–	1547.9
[1], x2 = 0.2331	–	1529.55
[1], x2 = 0.3709	–	1475.52
[1], x2 = 0.4924	–	1417.67
[1], x2 = 0.5984	–	1357.11
[1], x2 = 0.6952	–	1290.94
[1], x2 = 0.799	–	1204.62
[1], x2 = 0.8251	–	1179.95
[1], x2 = 0.9038	–	1095.21
[1], x2 = 0.9183	–	1078.3
[1], x2 = 0.9504	–	1037.23
[1], x2 = 0.9718	–	1007.96
[2], x2 = 0.099	0.0911	–
[2], x2 = 0.2052	0.166	–
[2], x2 = 0.3188	0.231	–
[2], x2 = 0.4099	0.26	–
[2], x2 = 0.4481	0.27	–
[2], x2 = 0.5059	0.278	–
[2], x2 = 0.5777	0.278	–
[2], x2 = 0.6385	0.268	–
[2], x2 = 0.69	0.252	–
[2], x2 = 0.7201	0.241	–
[2], x2 = 0.7507	0.227	–
[2], x2 = 0.7946	0.203	–
[2], x2 = 0.8411	0.169	–
[2], x2 = 0.9115	0.108	–
[2], x2 = 0.9775	0.0335	–

CCCC(=O)OC [methyl butanoate]
Conditions	mass density [kg/m3]	refractive index
[3]	892.42	–
[4]	–	1.386

COC(C)=O [methyl ethanoate]
Conditions	mass density [kg/m3]	refractive index
[3]	926.73	–
[4]	–	1.3585

COC=O [methyl methanoate]
Conditions	mass density [kg/m3]	refractive index
[3]	966.83	–
[4]	–	1.3415

CCCCC(=O)OC [methyl pentanoate]
Conditions	mass density [kg/m3]	refractive index
[3]	884.59	–
[4]	–	1.395

CCC(=O)OC [methyl propanoate]
Conditions	mass density [kg/m3]	refractive index
[3]	910.18	–
[4]	–	1.374
